Measured values from ChEMBL document CHEMBL3739380, “Discovery of benzothiazoles as antimycobacterial agents: Synthesis, structure-activity relationships and binding studies with Mycobacterium tuberculosis decaprenylphosphoryl-β-D-ribose 2'-oxidase” (Bioorg Med Chem, 2015).
Values after ≈ are worked out from the molar mass of the structure shown. Active and inactive are the calls of the source. The calls are words filed in the database; no cut-off is given here.

Assays:
[1] = Inhibition of Mycobacterium tuberculosis DprE1 using farnesyl-phosphoryl-beta-D-ribofuranose as substrate preincubated for 30 mins before substrate addition by peroxidase coupled assay
[2] = tested on: Mycobacterium tuberculosis; test: Antimycobacterial activity against Mycobacterium tuberculosis H37Rv ATCC 27294 after 5 days by microdilution method; assay type: functional; settings: H37Rv ATCC 27294, 120 h
Salmonella typhimurium [3] = test: Genotoxicity in Salmonella typhimurium TA100 at 500 ug/plate by Ames test in absence of S9 fraction; assay type: toxicity, organism-based; settings: salmonella enterica subsp. enterica serovar typhimurium
Salmonella typhimurium [4] = test: Genotoxicity in Salmonella typhimurium TA100 at 500 ug/plate by Ames test in presence of S9 fraction; assay type: toxicity, organism-based; settings: salmonella enterica subsp. enterica serovar typhimurium
Salmonella typhimurium [5] = test: Genotoxicity in Salmonella typhimurium TA98 at 50 ug/plate by Ames test in absence of S9 fraction; assay type: toxicity, organism-based; settings: salmonella enterica subsp. enterica serovar typhimurium
Salmonella typhimurium [6] = test: Genotoxicity in Salmonella typhimurium TA100 at 50 ug/plate by Ames test in absence of S9 fraction; assay type: toxicity, organism-based; settings: salmonella enterica subsp. enterica serovar typhimurium
Salmonella typhimurium [7] = test: Genotoxicity in Salmonella typhimurium TA98 at 50 ug/plate by Ames test in presence of S9 fraction; assay type: toxicity, organism-based; settings: salmonella enterica subsp. enterica serovar typhimurium
Salmonella typhimurium [8] = test: Genotoxicity in Salmonella typhimurium TA100 at 16 ug/plate by Ames test in presence of S9 fraction; assay type: toxicity, organism-based; settings: salmonella enterica subsp. enterica serovar typhimurium
Cytochrome P450 2C9 = Cytochrome P450 2C9 (Homo sapiens, UniProt P11712); test: Inhibition of human recombinant CYP2C9 by fluorescence assay; assay type: ADME
Cytochrome P450 1A2 = target: T1, Cytochrome P450 1A2 (Homo sapiens, UniProt P05177); test: Inhibition of human recombinant CYP1A2 by fluorescence assay; assay type: ADME
T1 sequence (P05177 whole entry): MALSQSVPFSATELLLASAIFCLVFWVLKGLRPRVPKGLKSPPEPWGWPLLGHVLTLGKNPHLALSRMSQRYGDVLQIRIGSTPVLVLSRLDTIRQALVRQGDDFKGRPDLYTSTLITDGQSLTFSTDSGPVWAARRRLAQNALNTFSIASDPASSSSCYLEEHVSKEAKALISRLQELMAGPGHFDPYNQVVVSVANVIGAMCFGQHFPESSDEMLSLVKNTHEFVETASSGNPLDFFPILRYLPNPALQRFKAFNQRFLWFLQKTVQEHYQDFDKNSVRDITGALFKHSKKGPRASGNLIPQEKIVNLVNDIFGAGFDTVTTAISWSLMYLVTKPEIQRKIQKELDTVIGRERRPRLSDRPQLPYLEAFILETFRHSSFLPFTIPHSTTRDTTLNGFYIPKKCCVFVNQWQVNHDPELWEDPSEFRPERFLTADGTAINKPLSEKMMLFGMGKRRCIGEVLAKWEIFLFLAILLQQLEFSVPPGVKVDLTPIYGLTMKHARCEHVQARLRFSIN

Cytochrome P450 2D6 = Cytochrome P450 2D6 (Homo sapiens, UniProt P10635); test: Inhibition of human recombinant CYP2D6 by fluorescence assay; assay type: ADME
Cytochrome P450 2C19 = Cytochrome P450 2C19 (Homo sapiens, UniProt P33261); test: Inhibition of human recombinant CYP2C19 by fluorescence assay; assay type: ADME
Cytochrome P450 3A4 = Cytochrome P450 3A4 (Homo sapiens, UniProt P08684); test: Inhibition of human recombinant CYP3A4 by fluorescence assay; assay type: ADME
A549 = test: Cytotoxicity against human A549 cells after 72 hrs by fluorescence assay; assay type: cell-based; settings: A549, 72 h
[9] = Aqueous solubility of the compound; assay type: physicochemical; settings: buffer
[10] = Fraction unbound in mouse plasma protein; assay type: ADME, cell-free
[11] = Intrinsic clearance in mouse liver microsomes; assay type: ADME; settings: read-out: CLH
Salmonella typhimurium [12] = test: Genotoxicity in Salmonella typhimurium TA98 at 500 ug/plate by Ames test in absence of S9 fraction; assay type: toxicity, organism-based; settings: salmonella enterica subsp. enterica serovar typhimurium
Salmonella typhimurium [13] = test: Genotoxicity in Salmonella typhimurium TA98 at 500 ug/plate by Ames test in presence of S9 fraction; assay type: toxicity, organism-based; settings: salmonella enterica subsp. enterica serovar typhimurium
[14] = tested on: Mycobacterium tuberculosis; test: Binding affinity to N-terminal His-tagged Mycobacterium tuberculosis DprE1 assessed as molecular weight shift due to semimercaptal covalent DprE1 adduct formation at 400 uM incubated for 5 hrs in presence of FAD and FPR by deconvoluted mass spectrometry
[15] = Intrinsic clearance in human liver microsomes; assay type: ADME; settings: read-out: CLH
[16] = Clearance in iv dosed mouse; assay type: ADME, organism-based; settings: in vivo
[17] = Oral bioavailability in mouse; assay type: ADME, organism-based; settings: in vivo
[18] = AUC100 in po dosed mouse; assay type: ADME, organism-based; settings: in vivo
[19] = Volume of distribution at steady state in mouse; assay type: ADME, organism-based; settings: in vivo, read-out: Vdss
Salmonella typhimurium [20] = test: Genotoxicity in Salmonella typhimurium TA98 at 5000 ug/plate by Ames test in absence of S9 fraction; assay type: toxicity, organism-based; settings: salmonella enterica subsp. enterica serovar typhimurium
Salmonella typhimurium [21] = test: Genotoxicity in Salmonella typhimurium TA100 at 5000 ug/plate by Ames test in absence of S9 fraction; assay type: toxicity, organism-based; settings: salmonella enterica subsp. enterica serovar typhimurium
Salmonella typhimurium [22] = test: Genotoxicity in Salmonella typhimurium TA98 at 5000 ug/plate by Ames test in presence of S9 fraction; assay type: toxicity, organism-based; settings: salmonella enterica subsp. enterica serovar typhimurium
Salmonella typhimurium [23] = test: Genotoxicity in Salmonella typhimurium TA100 at 5000 ug/plate by Ames test in presence of S9 fraction; assay type: toxicity, organism-based; settings: salmonella enterica subsp. enterica serovar typhimurium
[24] = tested on: Mycobacterium tuberculosis; test: Antimycobacterial activity against Mycobacterium tuberculosis H37Rv ATCC 27294 after 2 to 3 weeks by turbidity assay; assay type: functional
[25] = tested on: Mycobacterium tuberculosis; test: Antimycobacterial activity against Mycobacterium tuberculosis H37Rv ATCC 27294 assessed as log reduction CFU after 7 days by killing kinetic assay; assay type: functional
Salmonella typhimurium [26] = test: Genotoxicity in Salmonella typhimurium TA98 at 1600 ug/plate by Ames test in absence of S9 fraction; assay type: toxicity, organism-based; settings: salmonella enterica subsp. enterica serovar typhimurium
Salmonella typhimurium [27] = test: Genotoxicity in Salmonella typhimurium TA100 at 16 ug/plate by Ames test in absence of S9 fraction; assay type: toxicity, organism-based; settings: salmonella enterica subsp. enterica serovar typhimurium
Salmonella typhimurium [28] = test: Genotoxicity in Salmonella typhimurium TA98 at 1600 ug/plate by Ames test in presence of S9 fraction; assay type: toxicity, organism-based; settings: salmonella enterica subsp. enterica serovar typhimurium
Salmonella typhimurium [29] = test: Genotoxicity in Salmonella typhimurium TA100 at 1600 ug/plate by Ames test in absence of S9 fraction; assay type: toxicity, organism-based; settings: salmonella enterica subsp. enterica serovar typhimurium
Salmonella typhimurium [30] = test: Genotoxicity in Salmonella typhimurium TA100 at 160 ug/plate by Ames test in presence of S9 fraction; assay type: toxicity, organism-based; settings: salmonella enterica subsp. enterica serovar typhimurium
Salmonella typhimurium [31] = test: Genotoxicity in Salmonella typhimurium TA98 at 160 ug/plate by Ames test in absence of S9 fraction; assay type: toxicity, organism-based; settings: salmonella enterica subsp. enterica serovar typhimurium
[32] = tested on: Mycobacterium tuberculosis; test: Antimycobacterial activity against Mycobacterium tuberculosis H37Rv ATCC 27294 infected in BMDM assessed as log reduction CFU after 7 days by killing kinetic assay; assay type: functional
[33] = tested on: Mycobacterium tuberculosis; test: Antimycobacterial activity against Mycobacterium tuberculosis H37Rv ATCC 27294 infected in human THP1 cells assessed as log reduction CFU after 7 days by killing kinetic assay; assay type: functional, THP-1

Sequence of Cytochrome P450 2C19 (P33261 whole entry): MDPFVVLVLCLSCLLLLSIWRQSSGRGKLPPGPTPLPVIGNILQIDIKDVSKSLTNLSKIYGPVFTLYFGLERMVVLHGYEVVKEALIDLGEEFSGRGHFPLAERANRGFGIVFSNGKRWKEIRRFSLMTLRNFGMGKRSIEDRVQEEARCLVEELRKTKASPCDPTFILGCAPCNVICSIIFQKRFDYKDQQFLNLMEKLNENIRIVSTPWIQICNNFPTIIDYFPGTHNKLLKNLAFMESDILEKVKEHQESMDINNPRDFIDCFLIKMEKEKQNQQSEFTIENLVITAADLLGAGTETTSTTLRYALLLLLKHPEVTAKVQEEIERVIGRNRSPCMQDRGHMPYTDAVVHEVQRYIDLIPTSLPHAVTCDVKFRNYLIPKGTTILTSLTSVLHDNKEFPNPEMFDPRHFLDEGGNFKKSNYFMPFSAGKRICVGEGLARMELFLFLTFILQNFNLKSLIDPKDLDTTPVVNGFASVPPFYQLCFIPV
Sequence of Cytochrome P450 2C9 (P11712 whole entry): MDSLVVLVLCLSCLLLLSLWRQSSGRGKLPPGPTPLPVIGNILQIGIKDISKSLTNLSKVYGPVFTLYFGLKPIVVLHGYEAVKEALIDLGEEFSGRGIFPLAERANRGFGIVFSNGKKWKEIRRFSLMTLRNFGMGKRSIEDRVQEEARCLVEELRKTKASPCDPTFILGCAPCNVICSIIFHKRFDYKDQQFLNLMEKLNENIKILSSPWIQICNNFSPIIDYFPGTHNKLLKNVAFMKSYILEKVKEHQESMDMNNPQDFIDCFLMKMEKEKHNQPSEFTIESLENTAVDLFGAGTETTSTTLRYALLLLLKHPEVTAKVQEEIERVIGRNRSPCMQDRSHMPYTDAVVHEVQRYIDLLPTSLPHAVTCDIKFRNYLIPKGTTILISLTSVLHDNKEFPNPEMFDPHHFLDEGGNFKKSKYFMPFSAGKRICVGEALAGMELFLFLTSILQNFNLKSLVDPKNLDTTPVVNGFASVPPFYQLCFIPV
Sequence of Cytochrome P450 3A4 (P08684 whole entry): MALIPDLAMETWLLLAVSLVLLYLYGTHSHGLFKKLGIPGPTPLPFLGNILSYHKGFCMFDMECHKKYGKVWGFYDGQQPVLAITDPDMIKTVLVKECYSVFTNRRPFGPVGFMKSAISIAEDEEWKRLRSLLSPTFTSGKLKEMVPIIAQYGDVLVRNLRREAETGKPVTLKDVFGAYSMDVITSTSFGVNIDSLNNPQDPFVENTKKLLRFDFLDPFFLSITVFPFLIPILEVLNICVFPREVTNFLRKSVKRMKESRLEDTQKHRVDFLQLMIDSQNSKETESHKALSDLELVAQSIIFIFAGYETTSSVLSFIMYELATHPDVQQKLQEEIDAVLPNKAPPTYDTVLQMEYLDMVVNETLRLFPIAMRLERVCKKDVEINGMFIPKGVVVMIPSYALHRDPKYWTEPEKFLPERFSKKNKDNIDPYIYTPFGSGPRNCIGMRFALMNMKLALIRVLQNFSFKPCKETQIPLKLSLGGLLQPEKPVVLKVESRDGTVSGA
Sequence of Cytochrome P450 2D6 (P10635 whole entry): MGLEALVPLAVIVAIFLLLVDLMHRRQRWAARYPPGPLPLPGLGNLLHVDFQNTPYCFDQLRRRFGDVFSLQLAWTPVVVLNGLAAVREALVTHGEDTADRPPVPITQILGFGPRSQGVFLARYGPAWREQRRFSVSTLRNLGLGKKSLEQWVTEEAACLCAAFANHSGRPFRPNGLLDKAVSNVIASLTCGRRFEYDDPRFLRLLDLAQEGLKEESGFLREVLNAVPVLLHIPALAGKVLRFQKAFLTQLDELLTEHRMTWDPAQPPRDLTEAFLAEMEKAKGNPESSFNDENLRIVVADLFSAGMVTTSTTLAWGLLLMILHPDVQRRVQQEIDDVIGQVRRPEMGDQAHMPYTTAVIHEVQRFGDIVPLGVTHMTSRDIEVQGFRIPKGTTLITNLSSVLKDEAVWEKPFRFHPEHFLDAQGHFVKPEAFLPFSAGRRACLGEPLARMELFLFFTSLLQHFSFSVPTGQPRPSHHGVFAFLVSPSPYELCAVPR

SMILES | IC50 [1] [µM] | MIC [2] [µg/mL] | Activity (Salmonella typhimurium [6]) | Activity (Salmonella typhimurium [8]) | IC50 (Cytochrome P450 1A2) [µM] | IC50 (Cytochrome P450 2D6) [µM] | IC50 (Cytochrome P450 2C19) [µM] | IC50 (Cytochrome P450 3A4) [µM] | IC50 (A549) [µM] | solubility [9] [µM] | fraction unbound [10] | microsomal CLint [11] [µL/min/mg] | further results
COCc1nc2cc(C(F)(F)F)cc([N+](=O)[O-])c2s1 | 5.9 | > 32 | – | – | – | – | – | – | – | – | – | – | Activity (Salmonella typhimurium [3]): Non-toxic; Activity (Salmonella typhimurium [4]): Non-toxic
COCCN1CCN(C(=O)c2sc3c([N+](=O)[O-])cc(C(F)(F)F)cc3[n+]2[O-])CC1 | 0.027 | 0.03 (≈ 0.0691 µM) | Toxic | Toxic | – | – | – | – | – | – | – | – | Activity (Salmonella typhimurium [5]): Toxic; Activity (Salmonella typhimurium [7]): Toxic
COCCN1CCN(C(=O)c2nc3cc(C(F)(F)F)cc([N+](=O)[O-])c3s2)CC1 | 0.247 | 0.21 (≈ 0.502 µM) | Toxic | Toxic | 17.9 | 5.24 | 55.9 | 19.5 | 90 | 331 (≈ 138 µg/mL) | 0.061 | 25 | IC50 (Cytochrome P450 2C9): Not Active; Activity (Salmonella typhimurium [12]): Toxic; Activity (Salmonella typhimurium [13]): Toxic
O=C(NCc1cccnc1)c1sc2c([N+](=O)[O-])cc(C(F)(F)F)cc2[n+]1[O-] | – | 0.03 (≈ 0.0753 µM) | – | – | – | – | – | – | – | – | – | – | Activity [14]: Active
Cc1c(C(F)(F)F)cc2nc(C3=N[C@H](C(=O)N4CCCC4)CO3)sc2c1[N+](=O)[O-] | 1.2 | 2 (≈ 4.67 µM) | – | – | > 100 | > 100 | 73.5 | > 100 | > 100 | 12 (≈ 5.14 µg/mL) | 0.063 | 37.9 | IC50 (Cytochrome P450 2C9; read-out: IC50): 22.1 µM; microsomal CLint [15]: 9.6 µL/min/mg; clearance [16]: 83.5 mL/min/kg; bioavailability [17]: 22.5%; AUC [18]: 10200 ng·h/mL; Vd [19]: 3.5 L/kg; Activity (Salmonella typhimurium [20]): Non-toxic; Activity (Salmonella typhimurium [21]): Non-toxic; Activity (Salmonella typhimurium [22]): Non-toxic; Activity (Salmonella typhimurium [23]): Non-toxic
O=C(NCc1ccccn1)c1sc2c([N+](=O)[O-])cc(C(F)(F)F)cc2[n+]1[O-] | 0.026 | 0.02 (≈ 0.0502 µM) | – | – | – | – | – | – | – | – | – | – | MIC [24]: 0.01 µg/mL (≈ 0.0251 µM); Activity [25]: 2.5 log10CFU/ml
O=C([C@@H]1COC(c2nc3cc(C(F)(F)F)cc([N+](=O)[O-])c3s2)=N1)N1CCCC1 | 0.654 | 1.4 (≈ 3.38 µM) | – | Toxic | 53.1 | 3.4 | 24.2 | 18.6 | 82 | 64.6 (≈ 26.8 µg/mL) | 0.06 | 76.6 | IC50 (Cytochrome P450 2C9; read-out: IC50): 12.4 µM; microsomal CLint [15]: 5.3 µL/min/mg; clearance [16]: 49 mL/min/kg; bioavailability [17]: 27%; AUC [18]: 9180 ng·h/mL; Vd [19]: 1.44 L/kg; Activity (Salmonella typhimurium [26]): Toxic; Activity (Salmonella typhimurium [27]): Toxic; Activity (Salmonella typhimurium [28]): Toxic
O=[N+]([O-])c1cc(C(F)(F)F)cc2nc(C3=NCCO3)sc12 | – | 1 (≈ 3.15 µM) | – | – | – | – | – | – | – | – | – | – | Activity (Salmonella typhimurium [12]): Toxic; Activity (Salmonella typhimurium [13]): Toxic; Activity (Salmonella typhimurium [29]): Toxic; Activity (Salmonella typhimurium [30]): Toxic
O=[N+]([O-])c1cc(C(F)(F)F)cc2c1sc(C1=NCCO1)[n+]2[O-] | 0.276 | 0.4 (≈ 1.2 µM) | Toxic | Toxic | – | – | – | – | – | – | – | – | Activity (Salmonella typhimurium [7]): Toxic; Activity (Salmonella typhimurium [31]): Toxic
O=C(NCc1ccccn1)c1nc2cc(C(F)(F)F)cc([N+](=O)[O-])c2s1 | 0.452 | 0.6 (≈ 1.57 µM) | – | – | – | – | – | – | – | – | – | – | MIC [24]: 0.12 µg/mL (≈ 0.314 µM); Activity [25]: 2.5 log10CFU/ml; Activity [32]: 1 log10CFU/ml; Activity [33]: 1 log10CFU/ml
O=C(c1sc2c([N+](=O)[O-])cc(C(F)(F)F)cc2[n+]1[O-])N1CCCCC1 | 0.095 | 0.03 (≈ 0.0799 µM) | Toxic | Toxic | 14.7 | 1.21 | 17.7 | 3.91 | 24 | 84.7 (≈ 31.8 µg/mL) | 0.103 | 102 | IC50 (Cytochrome P450 2C9; read-out: IC50): 26.6 µM; Activity (Salmonella typhimurium [7]): Toxic; Activity (Salmonella typhimurium [31]): Toxic
COCCN1CCN(C(=O)c2nc3cc(C(F)(F)F)c(C)c([N+](=O)[O-])c3s2)CC1 | 1.7 | 2 (≈ 4.63 µM) | – | – | 9.56 | 58.6 | 64.9 | 95 | 100 | 73 (≈ 31.6 µg/mL) | 0.043 | < 4 | IC50 (Cytochrome P450 2C9): Not Active; clearance [16]: 146 mL/min/kg; AUC [18]: 570 ng·h/mL; Vd [19]: 24.5 L/kg; MIC [24]: 2 µg/mL (≈ 4.63 µM); Activity (Salmonella typhimurium [20]): Non-toxic; Activity (Salmonella typhimurium [21]): Non-toxic; Activity (Salmonella typhimurium [22]): Non-toxic; Activity (Salmonella typhimurium [23]): Non-toxic
